Source: PubChem BioAssay AID1919010 (Molecular Pharmacology Branch, DTP, NCI, 2023)
Values joined by “and” are separate entries in the source; they are usually repeats but may differ in a detail not shown here. Equal values may be shown once.

Test system: Hs578T complex spheroid growth, percent test/control
Experiment: Anticancer human tumor Hs578T cell line growth inhibition [AhR];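 further: luminescent viability signal as a proxy for spheroid growth; spheroids exposed to agents for one week after three days of growth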
Conditions: for viability, T/C: stronger effect = lower value
How it was run: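 Complex tumor spheroids co-cultured with HUVEC and human MSC stroma; AhR antagonists tested in combination with standard-of-care and investigational agents. Top concentration at or near clinical Cmax (else 10 microM), half-log dilutions; growth expressed as percent test/control.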

[1] = curve of first compound, second compound 0.1 µM
[2] = curve of first compound, second compound 0.316 µM
[3] = curve of first compound, second compound 1 µM
[4] = curve of first compound, second compound 3.16 µM
[5] = curve of first compound, second compound 10 µM
[6] = second compound 0.1 µM, first compound 0.0316 µM
[7] = second compound 0.1 µM, first compound 0.1 µM
[8] = second compound 0.1 µM, first compound 0.316 µM
[9] = second compound 0.1 µM, first compound 1 µM
[10] = second compound 0.1 µM, first compound 3.16 µM
[11] = second compound 0.1 µM, first compound 10 µM
[12] = second compound 0.316 µM, first compound 0.0316 µM
[13] = second compound 0.316 µM, first compound 0.1 µM
[14] = second compound 0.316 µM, first compound 0.316 µM
[15] = second compound 0.316 µM, first compound 1 µM
[16] = second compound 0.316 µM, first compound 3.16 µM
[17] = second compound 0.316 µM, first compound 10 µM
[18] = second compound 1 µM, first compound 0.0316 µM
[19] = second compound 1 µM, first compound 0.1 µM
[20] = second compound 1 µM, first compound 0.316 µM
[21] = second compound 1 µM, first compound 1 µM
[22] = second compound 1 µM, first compound 3.16 µM
[23] = second compound 1 µM, first compound 10 µM
[24] = second compound 3.16 µM, first compound 0.0316 µM
[25] = second compound 3.16 µM, first compound 0.1 µM
[26] = second compound 3.16 µM, first compound 0.316 µM
[27] = second compound 3.16 µM, first compound 1 µM
[28] = second compound 3.16 µM, first compound 3.16 µM
[29] = second compound 3.16 µM, first compound 10 µM
[30] = second compound 10 µM, first compound 0.0316 µM
[31] = second compound 10 µM, first compound 0.1 µM
[32] = second compound 10 µM, first compound 0.316 µM
[33] = second compound 10 µM, first compound 1 µM
[34] = second compound 10 µM, first compound 3.16 µM
[35] = second compound 10 µM, first compound 10 µM

## COc1cccc2c1C(=O)c1c(O)c3c(c(O)c1C2=O)CC(O)(C(=O)CO)CC3OC1CC(N)C(O)C(C)O1 (configuration not stated) + Cc1cncc(-c2nc(NCCc3c[nH]c4ccccc34)c3ncn(C(C)C)c3n2)c1
[1]
  IC50: 561 nM
[2]
  IC50: 480 nM
[3]
  IC50: 363 nM
[4]
  IC50: 315 nM
[5]
  IC50: < 31.6 nM
[6]
  viability, T/C: 90.3%
[7]
  viability, T/C: 87.7%
[8]
  viability, T/C: 73.5%
[9]
  viability, T/C: 26.6%
[10]
  viability, T/C: 3.41%
[11]
  viability, T/C: 3.51%
[12]
  viability, T/C: 97.1%
[13]
  viability, T/C: 87.5%
[14]
  viability, T/C: 68.2%
[15]
  viability, T/C: 19.3%
[16]
  viability, T/C: 3.19%
[17]
  viability, T/C: 3.19%
[18]
  viability, T/C: 92.9%
[19]
  viability, T/C: 80.5%
[20]
  viability, T/C: 56.7%
[21]
  viability, T/C: 12.3%
[22]
  viability, T/C: 2.37%
[23]
  viability, T/C: 2.76%
[24]
  viability, T/C: 62.1%
[25]
  viability, T/C: 52.9%
[26]
  viability, T/C: 50.1%
[27]
  viability, T/C: 5.82%
[28]
  viability, T/C: 1.65%
[29]
  viability, T/C: 1.75%
[30]
  viability, T/C: 6.81%
[31]
  viability, T/C: 6.99%
[32]
  viability, T/C: 11.9%
[33]
  viability, T/C: 0.55%
[34]
  viability, T/C: 0.74%
[35]
  viability, T/C: 0.83%

## CC1COCCN1c1cc(C2(S(C)(=N)=O)CC2)nc(-c2ccnc3[nH]ccc23)n1 (configuration not stated)
Compound 0.0316 µM
  viability, T/C: 105% and 94.7% and 106%
Compound 0.1 µM
  viability, T/C: 108% and 91.7% and 112%
Compound 0.316 µM
  viability, T/C: 119% and 99.9% and 103%
Compound 1 µM
  viability, T/C: 105% and 89.6% and 108%
Compound 3.16 µM
  viability, T/C: 104% and 76.3% and 81.6%
Compound 10 µM
  viability, T/C: 60.3% and 48.3% and 55.5%
Curve of compound
  IC50: > 10000 nM and 9320 nM

## Nc1ccccc1NC(=O)c1ccc(CNC(=O)OCc2cccnc2)cc1 + Cc1ccccc1N=Nc1ccc(NC(=O)c2ccnn2C)c(C)c1
[1]
  IC50: 1320 nM
[2]
  IC50: 1300 nM
[3]
  IC50: 1480 nM
[4]
  IC50: 1480 nM
[5]
  IC50: 1320 nM
[6]
  viability, T/C: 100%
[7]
  viability, T/C: 90.9%
[8]
  viability, T/C: 85.2%
[9]
  viability, T/C: 62.2%
[10]
  viability, T/C: 16.1%
[11]
  viability, T/C: 0.74%
[12]
  viability, T/C: 100%
[13]
  viability, T/C: 86.2%
[14]
  viability, T/C: 82.5%
[15]
  viability, T/C: 62.1%
[16]
  viability, T/C: 16.4%
[17]
  viability, T/C: 1.06%
[18]
  viability, T/C: 97.6%
[19]
  viability, T/C: 95.2%
[20]
  viability, T/C: 95.5%
[21]
  viability, T/C: 66.4%
[22]
  viability, T/C: 17.6%
[23]
  viability, T/C: 1.6%
[24]
  viability, T/C: 89.5%
[25]
  viability, T/C: 79.6%
[26]
  viability, T/C: 93.3%
[27]
  viability, T/C: 66.2%
[28]
  viability, T/C: 16.9%
[29]
  viability, T/C: 1.24%
[30]
  viability, T/C: 61%
[31]
  viability, T/C: 62.5%
[32]
  viability, T/C: 64.9%
[33]
  viability, T/C: 59.5%
[34]
  viability, T/C: 19.6%
[35]
  viability, T/C: 1.69%

## NS(=O)(=O)OCC1CC(n2ccc3c(NC4CCc5ccccc54)ncnc32)CC1O (configuration not stated) + Cc1ccccc1N=Nc1ccc(NC(=O)c2ccnn2C)c(C)c1
[1]
  IC50: 965 nM
[2]
  IC50: 1470 nM
[3]
  IC50: 1520 nM
[4]
  IC50: 862 nM
[5]
  IC50: 105 nM
[6]
  viability, T/C: 104%
[7]
  viability, T/C: 82.5%
[8]
  viability, T/C: 78.1%
[9]
  viability, T/C: 45.4%
[10]
  viability, T/C: 34.6%
[11]
  viability, T/C: 30.2%
[12]
  viability, T/C: 108%
[13]
  viability, T/C: 78.2%
[14]
  viability, T/C: 71.2%
[15]
  viability, T/C: 59%
[16]
  viability, T/C: 36.5%
[17]
  viability, T/C: 33.7%
[18]
  viability, T/C: 97.8%
[19]
  viability, T/C: 74.8%
[20]
  viability, T/C: 83.1%
[21]
  viability, T/C: 57.7%
[22]
  viability, T/C: 35.3%
[23]
  viability, T/C: 34.7%
[24]
  viability, T/C: 94.9%
[25]
  viability, T/C: 71%
[26]
  viability, T/C: 67.9%
[27]
  viability, T/C: 45.5%
[28]
  viability, T/C: 36.5%
[29]
  viability, T/C: 28%
[30]
  viability, T/C: 59.4%
[31]
  viability, T/C: 47.9%
[32]
  viability, T/C: 43.8%
[33]
  viability, T/C: 37.5%
[34]
  viability, T/C: 30.2%
[35]
  viability, T/C: 25.8%

## NS(=O)(=O)OCC1CC(n2ccc3c(NC4CCc5ccccc54)ncnc32)CC1O (configuration not stated) + CC(CO)NC(=O)c1cc(-c2ccc(Cl)cc2)nn(-c2cnn(C)c2)c1=O
[1]
  IC50: 914 nM
[2]
  IC50: 995 nM
[3]
  IC50: 1240 nM
[4]
  IC50: 2010 nM
[5]
  IC50: 2320 nM
[6]
  viability, T/C: 104%
[7]
  viability, T/C: 95.3%
[8]
  viability, T/C: 69.9%
[9]
  viability, T/C: 47.6%
[10]
  viability, T/C: 41.4%
[11]
  viability, T/C: 33%
[12]
  viability, T/C: 114%
[13]
  viability, T/C: 81%
[14]
  viability, T/C: 75%
[15]
  viability, T/C: 50%
[16]
  viability, T/C: 30.1%
[17]
  viability, T/C: 29.4%
[18]
  viability, T/C: 109%
[19]
  viability, T/C: 90.6%
[20]
  viability, T/C: 77.9%
[21]
  viability, T/C: 52.7%
[22]
  viability, T/C: 34.7%
[23]
  viability, T/C: 27.8%
[24]
  viability, T/C: 119%
[25]
  viability, T/C: 91.3%
[26]
  viability, T/C: 90.2%
[27]
  viability, T/C: 55.9%
[28]
  viability, T/C: 41.6%
[29]
  viability, T/C: 34.8%
[30]
  viability, T/C: 95.1%
[31]
  viability, T/C: 96.6%
[32]
  viability, T/C: 88.9%
[33]
  viability, T/C: 65.2%
[34]
  viability, T/C: 44.1%
[35]
  viability, T/C: 40.8%

## CC(C)CC(NC(=O)C(Cc1ccccc1)NC(=O)c1cnccn1)B(O)O (configuration not stated) + Cc1ccccc1N=Nc1ccc(NC(=O)c2ccnn2C)c(C)c1
[1]
  IC50: 5.01 nM
[2]
  IC50: 4.98 nM
[3]
  IC50: 5.47 nM
[4]
  IC50: 4.53 nM
[5]
  IC50: 3.14 nM
Second compound 0.1 µM, first compound 0.000949 µM
  viability, T/C: 107%
Second compound 0.1 µM, first compound 0.003 µM
  viability, T/C: 80.8%
Second compound 0.1 µM, first compound 0.00949 µM
  viability, T/C: 11.7%
Second compound 0.1 µM, first compound 0.03 µM
  viability, T/C: 0.3%
Second compound 0.1 µM, first compound 0.0949 µM
  viability, T/C: 0.81%
Second compound 0.1 µM, first compound 0.3 µM
  viability, T/C: 0.36%
Second compound 0.316 µM, first compound 0.000949 µM
  viability, T/C: 94.6%
Second compound 0.316 µM, first compound 0.003 µM
  viability, T/C: 78.1%
Second compound 0.316 µM, first compound 0.00949 µM
  viability, T/C: 14.1%
Second compound 0.316 µM, first compound 0.03 µM
  viability, T/C: 0.31%
Second compound 0.316 µM, first compound 0.0949 µM
  viability, T/C: 0.28%
Second compound 0.316 µM, first compound 0.3 µM
  viability, T/C: 0.33%
Second compound 1 µM, first compound 0.000949 µM
  viability, T/C: 98.2%
Second compound 1 µM, first compound 0.003 µM
  viability, T/C: 86.1%
Second compound 1 µM, first compound 0.00949 µM
  viability, T/C: 16.9%
Second compound 1 µM, first compound 0.03 µM
  viability, T/C: 0.65%
Second compound 1 µM, first compound 0.0949 µM
  viability, T/C: 0.44%
Second compound 1 µM, first compound 0.3 µM
  viability, T/C: 1.31%
Second compound 3.16 µM, first compound 0.000949 µM
  viability, T/C: 88.6%
Second compound 3.16 µM, first compound 0.003 µM
  viability, T/C: 68.7%
Second compound 3.16 µM, first compound 0.00949 µM
  viability, T/C: 16.6%
Second compound 3.16 µM, first compound 0.03 µM
  viability, T/C: 0.34%
Second compound 3.16 µM, first compound 0.0949 µM
  viability, T/C: 0.39%
Second compound 3.16 µM, first compound 0.3 µM
  viability, T/C: 0.32%
Second compound 10 µM, first compound 0.000949 µM
  viability, T/C: 62.1%
Second compound 10 µM, first compound 0.003 µM
  viability, T/C: 51.2%
Second compound 10 µM, first compound 0.00949 µM
  viability, T/C: 16.6%
Second compound 10 µM, first compound 0.03 µM
  viability, T/C: 0.45%
Second compound 10 µM, first compound 0.0949 µM
  viability, T/C: 0.83%
Second compound 10 µM, first compound 0.3 µM
  viability, T/C: 0.53%
